Measured values published in patent US10385065B2, “Antibacterial compounds” (priority 2014, dated 2019).
In brackets after ≈: the same amount, converted by molar mass. Like-named read-outs stand apart in the source and are kept apart here.

Legend:
Format in all cases: cell-based
[1] = system: human hepatic cell line (HepG2 ATCC HB-8065); assay: Human cell viability assay (CellTiter-Glo), HepG2; settings: HepG2, 24 h incubation, tested over 1-128 μg/mL, read-out: IC50 values against HepG2
Protocol: Compounds are assessed for potential non-specific cytotoxic effects against a human hepatic cell line (HepG2 ATCC HB-8065). HepG2 cells are seeded at 20,000 cells/well in 96-well microtitre plates in minimal essential medium (MEM) supplemented with a final concentration of 10% FBS and 1 mM sodium pyruvate. After 24 h compound dilutions are prepared in Dulbecco's minimum essential media (DMEM) supplemented with final concentrations of 0.001% FBS, 0.3% bovine albumin and 0.02% HEPES and added to cells. Compounds are tested in two-fold serial dilutions over a final concentration range of 1-128 μg/mL in a final DMSO concentration of 1% vol/vol. Chlorpromazine is used as a positive control. Cells are incubated with compound at 37° C. and 5% CO2 for a further 24 h, after which time the CellTiter-Glo reagent (Promega) is added. Luminescence is measured on a BMG Omega plate reader. Data are analysed using GraphPad Prism software to determine the concentration of compound that inhibits cell viability by fifty percent (IC50).

[2] = system: Staphylococcus aureus ATCC 29213; assay: MIC, broth microdilution, S. aureus ATCC 29213
[3] = system: Escherichia coli ATCC 25922; assay: MIC, broth microdilution, E. coli ATCC 25922; settings: ATCC25922, Table 1, wild type strain
[4] = system: Haemophilus influenzae ATCC 49247; assay: MIC, H. influenzae ATCC 49247; settings: ATCC49247, Table 4
[5] = system: Enterococcus faecium ATCC 19434; assay: MIC, E. faecium ATCC 19434; settings: ATCC19434, Table 2
[6] = ATCC29213, Table 1, wild type strain, read-out: MIC S. aureus ATCC 29213
[7] = ATCC 29213 / MSSA, Table 2, read-out: MIC S. aureus (MSSA) ATCC 29213 CLSI control strain

Row | SMILES | IC50 [1] [µg/mL] | MIC [2, 6] [µg/mL] | MIC [2, 7] [µg/mL] | MIC [3] [µg/mL] | MIC [4] [µg/mL] | MIC [5] [µg/mL]
1 | O=C(O)c1cn(C2CC2)c2cc(N3CCNCC3)c(F)cc2c1=O [Ciprofloxacin, reference compound] | > 100 | – | – | – | – | –
2 | Cc1c(-c2ccc(N)cc2F)ccc2c3ocnc3c(=O)n(C3CC3)c12 [Compound 5, 7-(4-amino-2-fluoro-phenyl)-5-cyclopropyl-6-methyl-oxazolo[4,5-c]quinolin-4-one] | 10 to 100 (≈ 28.6 to 286 µM) | < 1 | < 1 | 1 to 10 (≈ 2.86 to 28.6 µM) | < 1 | > 100
3 | Cc1nc2c(=O)n(C3CC3)c3c(C)c(-c4ccc(C(=O)O)cc4)ccc3c2o1 [Compound 8, 4-(5-cyclopropyl-2,6-dimethyl-4-oxo-oxazolo[4,5-c]quinolin-7-yl)benzoic acid] | > 100 | 10 to 100 (≈ 26.7 to 267 µM) | > 100 | > 100 | 1 to 10 (≈ 2.67 to 26.7 µM) | > 100
4 | Cc1nc2c(=O)n(C3CC3)c3c(C)c(-c4ccc(CN)cc4)ccc3c2o1 [Compound 9, 7-[4-{aminomethyl)phenyl]-5-cyclopropyl-2,6-dimethyl-oxazolo[4,5-c]quinolin-4-one] | 10 to 100 (≈ 27.8 to 278 µM) | < 1 | < 1 | 1 to 10 (≈ 2.78 to 27.8 µM) | 1 to 10 (≈ 2.78 to 27.8 µM) | > 100
5 | Cc1nc2c(=O)n(C3CC3)c3c(C)c(-c4ccc5[nH]ncc5c4)ccc3c2o1 [Compound 10, 5-cyclopropyl-7-(1H-indazol-5-yl)-2,6-dimethyl-oxazolo{4,5-c]quinolin-4-one] | 10 to 100 (≈ 27 to 270 µM) | < 1 | < 1 | > 100 | 10 to 100 (≈ 27 to 270 µM) | > 100
6 | Cc1nc2c(=O)n(C3CC3)c3c(C)c(-c4cnn(C5CN(C(=O)OC(C)(C)C)C5)c4)ccc3c2o1 [Compound 11, tert-butyl 3-[4-(5-cyclopropyl-2,6-dimethyl-4-oxo-oxazolo[4,5-c]quinolin-7-yl)pyrazol-1-yl]azetidine-1-carboxylate] | > 100 | 1 to 10 (≈ 2.1 to 21 µM) | 1 to 10 (≈ 2.1 to 21 µM) | > 100 | 10 to 100 (≈ 21 to 210 µM) | > 100
7 | Cc1c(-c2cc(F)c(N)c(F)c2)ccc2c3ocnc3c(=O)n(C3CC3)c12 [Compound 19] | 10 to 100 (≈ 27.2 to 272 µM) | < 1 | < 1 | > 100 | 1 to 10 (≈ 2.72 to 27.2 µM) | > 100
8 | Cc1c(-c2cc(F)c(C(C)O)cc2F)ccc2c3ocnc3c(=O)n(C3CC3)c12 (stereo not shown) [Compound 22, 5-cyclopropyl-7-[2,5-difluoro-4-(1-hydroxyethyl)phenyl]-6-methyl-oxazolo[4,5-c]quinolin-4-one] | 10 to 100 (≈ 25.2 to 252 µM) | < 1 | < 1 | 1 to 10 (≈ 2.52 to 25.2 µM) | 1 to 10 (≈ 2.52 to 25.2 µM) | 10 to 100 (≈ 25.2 to 252 µM)
9 | Cc1nc2c(=O)n(C3CC3)c3cc(-c4ccncc4F)c(F)cc3c2o1 [Compound 74, 5-cyclopropyl-8-fluoro-7-(3-fluoro-4-pyridyl)-2-methyl-oxazolo[4,5-c]quinolin-4-one] | – | 10 to 100 (≈ 28.3 to 283 µM) | 10 to 100 (≈ 28.3 to 283 µM) | 10 to 100 (≈ 28.3 to 283 µM) | 1 to 10 (≈ 2.83 to 28.3 µM) | > 100
10 | Cc1nc2c(=O)n(C3CC3)c3cc(-c4ccncc4)c(F)cc3c2o1 [Compound 75, 5-cyclopropyl-8-fluoro-2-methyl-7-(4-pyridyl)oxazolo[4,5-c]quinolin-4-one] | – | 1 to 10 (≈ 2.98 to 29.8 µM) | 1 to 10 (≈ 2.98 to 29.8 µM) | 10 to 100 (≈ 29.8 to 298 µM) | 1 to 10 (≈ 2.98 to 29.8 µM) | > 100
11 | CC(=O)c1cc(F)c(-c2cc3c(cc2F)c2oc(C)nc2c(=O)n3C2CC2)cc1F [Compound 77, 7-(4-acetyl-2,5-difluoro-phenyl)-5-cyclopropyl-8-fluoro-2-methyl-oxazolo[4,5-c]quinolin-4-one] | – | 10 to 100 (≈ 24.3 to 243 µM) | 10 to 100 (≈ 24.3 to 243 µM) | > 100 | > 100 | > 100
12 | Cc1nc2c(=O)n(C3CC3)c3cc(-c4cc(F)c(C(N)=O)cc4F)c(F)cc3c2o1 [Compound 78, 4-(5-cyclopropyl-8-fluoro-2-methyl-4-oxo-oxazolo[4,5-c]quinolin-7-yl)-2,5-difluoro-benzamide] | – | > 100 | > 100 | > 100 | 10 to 100 (≈ 24.2 to 242 µM) | > 100
13 | NC1C2CN(c3nc4c(cc3F)c3ocnc3c(=O)n4C3CC3)CC12 (stereo not shown) [Compound 82, 7-(6-amino-3-azabicyclo[3.1.0]hexan-3-yl)-5-cyclopropyl-8-fluoro-oxazolo[4,5-c][1,8]naphthyridin-4-one] | – | 10 to 100 (≈ 29.3 to 293 µM) | 10 to 100 (≈ 29.3 to 293 µM) | 1 to 10 (≈ 2.93 to 29.3 µM) | 10 to 100 (≈ 29.3 to 293 µM) | > 100
14 | CN(C)C1CCN(c2nc3c(cc2F)c2ocnc2c(=O)n3C2CC2)C1 (stereo not shown) [Compound 83, 5-cyclopropyl-7-[3-(dimethylamino)pyrrolidin-1-yl]-8-fluoro-oxazolo[4,5-c][1,8]naphthyridin-4-one] | – | 10 to 100 (≈ 28 to 280 µM) | 10 to 100 (≈ 28 to 280 µM) | 1 to 10 (≈ 2.8 to 28 µM) | 10 to 100 (≈ 28 to 280 µM) | > 100
15 | Nc1cc(-c2nc3c(cc2F)c2ocnc2c(=O)n3C2CC2)c(F)cc1F [Compound 85, 7-(5-amino-2,4-difluorophenyl)-5-cyclopropyl-8-fluoro-oxazolo[4,5-c]1,8-naphthyridin-4-one] | – | 10 to 100 (≈ 26.9 to 269 µM) | 10 to 100 (≈ 26.9 to 269 µM) | 10 to 100 (≈ 26.9 to 269 µM) | 1 to 10 (≈ 2.69 to 26.9 µM) | > 100
16 | Cc1nc2c(=O)n(C3CC3)c3nc(-c4cc(F)c(N)cc4F)c(F)cc3c2o1 [Compound 86, 7-(4-amino-2,5-difluorophenyl)-5-cyclopropyl-8-fluoro-2-methyl-oxazolo[4,5-c]1,8-naphthyridin-4-one] | – | > 100 | 10 to 100 (≈ 25.9 to 259 µM) | > 100 | 10 to 100 (≈ 25.9 to 259 µM) | > 100
17 | Cc1nc2c(=O)n(C3CC3)c3nc(-c4ccc5[nH]ncc5c4)c(F)cc3c2o1 [Compound 87] | – | > 100 | 10 to 100 (≈ 26.6 to 266 µM) | > 100 | 10 to 100 (≈ 26.6 to 266 µM) | > 100
18 | Cc1nc2c(=O)n3c4c(c(N5CCN(C)CC5)c(F)cc4c2o1)OC[C@@H]3C [Compound 91] | – | 10 to 100 (≈ 26.9 to 269 µM) | 10 to 100 (≈ 26.9 to 269 µM) | 10 to 100 (≈ 26.9 to 269 µM) | 1 to 10 (≈ 2.69 to 26.9 µM) | > 100
19 | C[C@H]1COc2c(-c3cnc(N)nc3)ccc3c4ocnc4c(=O)n1c23 [Compound 94, (2S)-6-(2-aminopyrimidin-5-yl)-2-methyl-4,11-dioxa-1,13-diazatetracyclo[7.6.1.0^5,^16.0^10,^14]hexadeca-5(16),6,8,10(14),12-pentaen-15-one] | – | 1 to 10 (≈ 2.98 to 29.8 µM) | 1 to 10 (≈ 2.98 to 29.8 µM) | 10 to 100 (≈ 29.8 to 298 µM) | 1 to 10 (≈ 2.98 to 29.8 µM) | 10 to 100 (≈ 29.8 to 298 µM)
20 | COc1c(N2CCC(N)C2)c(F)cc2c3ocnc3c(=O)n(C3CC3)c12 (stereo not shown) [Compound 97, 7-(3-aminopyrrolidin-1-yl)-5-cyclopropyl-8-fluoro-6-methoxyoxazolo[4,5-c]quinolin-4-one] | – | < 1 | < 1 | 1 to 10 (≈ 2.79 to 27.9 µM) | 1 to 10 (≈ 2.79 to 27.9 µM) | 10 to 100 (≈ 27.9 to 279 µM)
21 | Cc1c(-c2ccc(C(=O)O)cc2)ccc2c3oc(CN)nc3c(=O)n(C3CC3)c12 [Compound 102, 4-[2-(aminomethyl)-5-cyclopropyl-6-methyl-4-oxo-oxazolo[4,5-c]quinolin-7-yl]benzoic acid] | – | 1 to 10 (≈ 2.57 to 25.7 µM) | 1 to 10 (≈ 2.57 to 25.7 µM) | > 100 | 10 to 100 (≈ 25.7 to 257 µM) | > 100
22 | Cc1c(-c2cnc(N)nc2)ccc2c3oc(CN)nc3c(=O)n(C3CC3)c12 [Compound 103, 2-(aminomethyl)-7-(2-aminopyrimidin-5-yl)-5-cyclopropyl-6-methyl-oxazolo[4,5-c]quinolin-4-one] | – | 1 to 10 (≈ 2.76 to 27.6 µM) | 1 to 10 (≈ 2.76 to 27.6 µM) | 1 to 10 (≈ 2.76 to 27.6 µM) | < 1 | 10 to 100 (≈ 27.6 to 276 µM)
23 | CCn1c(=O)c2ncoc2c2cc(F)c(-c3cc(F)c(N)cc3F)c(C)c21 [Compound 104, 7-(4-amino-2,5-difluoro-phenyl)-5-ethyl-8-fluoro-6-methyl-oxazolo[4,5-c]quinolin-4-one] | – | 1 to 10 (≈ 2.68 to 26.8 µM) | 1 to 10 (≈ 2.68 to 26.8 µM) | > 100 | 10 to 100 (≈ 26.8 to 268 µM) | 10 to 100 (≈ 26.8 to 268 µM)
24 | CCn1c(=O)c2ncoc2c2cc(F)c(-c3cc(N)c(F)cc3F)c(C)c21 [Compound 105, 7-(5-amino-2,4-difluoro-phenyl)-5-ethyl-8-fluoro-6-methyl-oxazolo[4,5-c]quinolin-4-one] | – | 10 to 100 (≈ 26.8 to 268 µM) | 10 to 100 (≈ 26.8 to 268 µM) | 10 to 100 (≈ 26.8 to 268 µM) | 10 to 100 (≈ 26.8 to 268 µM) | 10 to 100 (≈ 26.8 to 268 µM)
25 | CCn1c(=O)c2ncoc2c2cc(F)c(-c3ccc(N)nc3)c(C)c21 [Compound 106, 7-(6-amino-3-pyridyl)-5-ethyl-8-fluoro-6-methyl-oxazolo[4,5-c]quinolin-4-one] | – | 10 to 100 (≈ 29.6 to 296 µM) | 10 to 100 (≈ 29.6 to 296 µM) | > 100 | 10 to 100 (≈ 29.6 to 296 µM) | > 100
26 | CCn1c(=O)c2ncoc2c2cc(F)c(-c3ccc(N)c(F)c3)c(C)c21 [Compound 107, 7-(4-amino-3-fluoro-phenyl)-5-ethyl-8-fluoro-6-methyl-oxazolo[4,5-c]quinolin-4-one] | – | 10 to 100 (≈ 28.1 to 281 µM) | 10 to 100 (≈ 28.1 to 281 µM) | > 100 | > 100 | > 100
